How the values were obtained:
NLRP3 [1] = target: T1, NLRP3 (Mus musculus, UniProt Q8R4B8); assay: Photoaffinity labeling of recombinant NLRP3 with YM-I-27 and NBD-Azide click, with competition; type: binding
T1 construct: The recombinant full-length NLRP3 protein was expressed and purified as previously described using Expi293F cells; FLAG (N); host or cells: Expi293F
Protocol: 30 μL aliquots of recombinant NLRP3 or a mixture of J774A.1 cell lysate and NLRP3 were incubated with or without YM-I-27 at the indicated concentrations at 37 °C for 30 min. The samples were then placed on ice and irradiated at 365 nm for 15 min. Subsequently, 1 μL of NBD-Azide (5 mM) or Biotin-PEG3-Azide (5 mM) was added to the samples, followed by the addition of 1 μL of CuSO4 (50 mM), tris(benzyltriazolylmethyl)-amine (TBTA) (30 mM), and tris(2-carboxyethyl)-phosphine (TCEP) (100 mM). The CuAAC reactions were agitated at room temperature for 1 h, and proteins were precipitated with prechilled methanol and left to dry. The protein pellets were then suspended in 30 μL of 2x SDS loading buffer and heated for 10 min at 95 °C. […] The Biotin-PEG3-Azide-labeled proteins were then transferred to membranes and analyzed by Western blotting using streptavidin-HRP and NLRP3 antibodies, respectively.

endogenous NLRP3 = target: T2, endogenous NLRP3 (Mus musculus, UniProt Q8R4B8); assay: Immunocytochemistry FRET assay in J774A.1 cells; type: cell-based, murine; details: LPS-treated J774A.1 cells; TAMRA acceptor clicked to probe
T2 construct: endogenous in cells; host or cells: J774A.1 murine macrophages (LPS- or Pam3CSK4-primed)
Protocol: J774A.1 cells were treated with 1 μg/mL LPS for 4.5 h, and the photoactive probe (YM-I-27) was added and incubated for 30 min. Cells were irradiated at 365 nm for 30 min on ice and were fixed and permeabilized following the Immunofluorescence Microscopy procedures. The click reaction was performed in PBS containing TAMRA-N3 (30 μM), CuSO4 (800 μM), TBTA (500 μM), and TCEP (500 μM) at room temperature in the dark for 2.5 h. Cells were thoroughly washed with PBS and blocked by following the above procedures. Cells were then treated with anti-NLRP3 (cryo-2, 1:200) for 1.5 h, followed by Alexa Fluor 488-conjugated antimouse secondary antibody (Thermo Fisher, 4 μg/mL). Coverslips were mounted to slides, and data were acquired using a Zeiss LSM710 confocal microscope (Zeiss) and a 440 nm pulsed laser. The difference in the fluorescence lifetime was calculated by subtracting the median lifetime of Alexa Fluor 488 (donor) in the absence and presence of the YM-I-27 probe clicked with TAMRA (acceptor).

NLRP3 [2] = target: T1, NLRP3; assay: In situ proteome click labeling in J774A.1 cell lysate spiked with NLRP3; type: binding, murine; details: YM-I-27 3 and 10 μM; Biotin-PEG3-Azide click; J774A.1 lysate:NLRP3 20:1
Protocol: 30 μL aliquots of recombinant NLRP3 or a mixture of J774A.1 cell lysate and NLRP3 were incubated with or without YM-I-27 at the indicated concentrations at 37 °C for 30 min. The samples were then placed on ice and irradiated at 365 nm for 15 min. Subsequently, 1 μL of NBD-Azide (5 mM) or Biotin-PEG3-Azide (5 mM) was added to the samples, followed by the addition of 1 μL of CuSO4 (50 mM), tris(benzyltriazolylmethyl)-amine (TBTA) (30 mM), and tris(2-carboxyethyl)-phosphine (TCEP) (100 mM). The CuAAC reactions were agitated at room temperature for 1 h, and proteins were precipitated with prechilled methanol and left to dry. The protein pellets were then suspended in 30 μL of 2x SDS loading buffer and heated for 10 min at 95 °C. The SDS-PAGE gels of NBD-Azide-labeled proteins were then washed with washing buffer (10% acetic acid, 40% methanol in water) for 2 h and imaged using ChemiDoc MP Imaging System (Bio-Rad) with Alexa Fluor 488 (λex = 490 nm, λem = 525 nm). The Biotin-PEG3-Azide-labeled proteins were then transferred to membranes and analyzed by Western blotting using streptavidin-HRP and NLRP3 antibodies, respectively.

NLRP3 inflammasome = target: T3, NLRP3 inflammasome (Mus musculus, UniProt Q8R4B8); assay: IL-1β production in J774A.1 cells upon NLRP3 inflammasome activation (ELISA); type: cell-based, murine; details: for IC50: LPS/ATP activation
T3 construct: endogenous in cells; host or cells: J774A.1 murine macrophages (LPS- or Pam3CSK4-primed)
Protocol: The levels of IL-1β and TNF-α in the supernatant were measured by ELISA.

NLRP3, NEK7, ASC = target: T4, NLRP3, NEK7, ASC (Mus musculus, UniProt Q8R4B8); assay: Photoaffinity labeling and pull-down with YM-I-85 in LPS-primed J774A.1 cell lysates; type: binding, murine; details: UV irradiation
T4 construct: endogenous in cells; host or cells: J774A.1 murine macrophages (LPS- or Pam3CSK4-primed)
Protocol: LPS-primed J774A.1 cells were lysed with NP-40 lysis buffer (50 mM Tris-HCl at pH 8, 150 mM NaCl, 1.0% NP-40, supplemented with cOmplete mini protease inhibitor cocktail) and centrifuged at 20,000g for 20 min at 4 °C. The supernatant was diluted to a concentration of 1.2 mg/mL and incubated with the competing compound for 1 h on ice, followed by incubation with YM-I-85 for 1 h on ice. Samples were irradiated at 365 nm for 15 min and then incubated with Streptavidin Agarose Resin (Thermo Fisher) overnight at 4 °C. The resins were washed once with 0.1% SDS in PBS and twice with 1% NP-40 in PBS before eluting with SDS-PAGE loading buffer and boiling. Beads were spun down, and the supernatants were analyzed by immunoblotting.

[3] = system: NLRP3 and pro-IL-1β expression; assay: Western blot of LPS-induced NLRP3 and pro-IL-1β (priming stage) in J774A.1 cells; type: cell-based, murine; details: YQ128 10 μM, curcumin 150 μM, MCC950 1 μM, LPS 1 μg/mL
ASC specks = assay: ASC speck formation by immunofluorescence in J774A.1 cells; type: cell-based, murine; details: LPS/nigericin, YQ128 10 and 20 μM
Protocol: J774A.1 cells were seeded onto poly-D-lysine-coated glass coverslips in a 12-well plate (1 × 10^6 cells/well) and cultured in their respective growth medium, allowing them to attach overnight at 37 °C. For ASC speck formation, cells were treated with 1 μg/mL LPS for 4.5 h with different doses of compound treatments during the last hour, followed by treatment with 10 μM nigericin for 1.5 h. Cells were fixed with 4% paraformaldehyde, permeabilized with 0.1% Triton X-100 in PBS, and then blocked with 1% BSA and 0.1% Tween-20 in PBS. […] Nuclei were stained with DAPI (2 μg/mL), and coverslips were mounted onto slides using Epredia Immuno-Mount (Fisher Scientific). Images were acquired using a Zeiss LSM700 confocal microscope (Zeiss).

TNF-α = TNF-α production in J774A.1 cells under LPS/nigericin (ELISA); type: cell-based, murine
[4] = system: caspase-1 and GSDMD cleavage; assay: Western blot of cleavage of caspase-1 and GSDMD in J774A.1 cells; type: cell-based, murine; details: LPS 10 μg/mL/nigericin 10 μM
Protocol: J774A.1 cells were seeded into a 24-well plate at 0.6 × 10^6 cells/well and allowed to attach overnight at 37 °C. For the priming, cells were treated with compounds for 1 h, followed by 1 μg/mL LPS treatment for 4.5 h. Cells were lysed in RIPA buffer, and cell lysates were analyzed by immunoblotting. For the activation, cells were treated with 10 μg/mL LPS for 4.5 h. Compounds were added during the last hour of LPS treatment. Then, cells were treated with 10 μM nigericin for 1 h. Cells were lysed in RIPA buffer, and cell lysates were analyzed by immunoblotting.
Protein samples were prepared with 4x Laemmli sample buffer (Bio-Rad) supplemented with β-mercaptoethanol, followed by boiling for 5–10 min. Samples were then resolved by SDS-PAGE and dry-transferred to poly­(vinyl difluoride) (PVDF) membranes using a Trans-Blot Turbo transfer system (Bio-Rad). Membranes were blocked in 5% (w/v) dried milk or BSA in TBS (Bio-Rad) supplemented with 0.1% (v/v) Tween-20 (TBS-T) for 1 h at room temperature or overnight at 4 °C. Membranes were then incubated with primary antibody, followed by a horseradish peroxidase (HRP)-conjugated secondary antibody, each diluted in 5% (w/v) dried milk or BSA in TBS-T for 1–2 h at room temperature or overnight at 4 °C. Membranes were developed with Clarity Western ECL substrate (Bio-Rad) and visualized for chemiluminescence using an Amersham Imager 680. […]

caspase-1 = target: T5, caspase-1 (Homo sapiens, UniProt P29466); assay: In vitro caspase-1 cleavage assay (recombinant YTHDF2 substrate); details: recombinant caspase-1; YQ128 1, 3 and 10 μM
T5 sequence (P29466 120-297 limits assumed): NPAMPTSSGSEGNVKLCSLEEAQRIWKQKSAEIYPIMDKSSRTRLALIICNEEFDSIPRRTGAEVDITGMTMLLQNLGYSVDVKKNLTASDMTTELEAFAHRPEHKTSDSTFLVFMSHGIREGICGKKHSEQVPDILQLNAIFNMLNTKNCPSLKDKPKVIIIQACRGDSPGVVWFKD
T5 sequence (P29466 317-404 limits assumed): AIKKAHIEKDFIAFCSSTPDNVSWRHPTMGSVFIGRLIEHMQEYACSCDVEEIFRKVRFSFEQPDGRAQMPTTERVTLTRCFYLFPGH
Protocol: The reactions were then terminated by boiling in 2× SDS sample buffer, and the samples were analyzed by Western blotting.

NLRP3 NACHT domain = target: T6, NLRP3 NACHT domain (Homo sapiens, UniProt Q96P20); assay: Surface plasmon resonance (SPR); type: binding; details: biotinylated NACHT protein; single-cycle kinetics, 1:1 model
T6 construct: (K131-L679)-Avi plasmid; 8His-Strep II-ZZ-TEV site (N, cleaved yes); made in house; host or cells: Sf21 insect cells (baculovirus)
Protocol: Human biotinylated-NACHT domain of NLRP3 was expressed in Sf21 insect cells using the pFastBac1–8His-Strep II-ZZ-TEV-NLRP3­(K131-L679)-Avi plasmid. For protein expression, 1.6 L of insect cells were cultured with a viral stock of the second passage for 48 h at 27 °C. Cells were collected, lysed in lysis buffer (50 mM HEPES pH 7.5, 500 mM NaCl, 10% glycerol, 1 mM MgCl2, 1 mM TCEP, 100 μM ATP) and centrifuged at 16,000 rpm for 60 min. The supernatant was loaded onto a Ni Bestarose FF column and eluted with lysis buffer containing 300 mM imidazole. The sample was biotinylated in a tube containing BirA enzyme (1:100 (w/w) to protein) with biotin buffer and TEV protease (1:10 (w/w) to protein), and the reaction was incubated at 4 °C overnight. The sample was collected and eluted with a lysis buffer containing 75 mM biotin from Strep-Tactin XT columns. The biotinylated NACHT protein was further purified with HiLoad 16/600 Superdex 200 pg column with an elution buffer (50 mM HEPES pH 7.5, 500 mM NaCl, 10% glycerol, 1 mM MgCl2, 1 mM TCEP).
SPR experiments were performed on a Biacore 1K system with streptavidin sensor chip (Series S Sensor Chip SA, Cytiva) according to the reported procedure. The system was flushed with running buffer (10 mM HEPES, pH 7.4, 150 mM NaCl, 0.5 mM ADP, 0.5 mM TCEP, 2 mM MgCl2, 0.05% Tween 20, 2% DMSO). […]

[5] = system: full-length NLRP3, PYD-NACHT fragment, PYD fragment; assay: Drug affinity responsive target stability (DARTS); type: binding, human; details: YQ128 50 μM; 50–200 ng Pronase per μg protein
Protocol: Then, 0.1 mg/mL Pronase (Sigma-Aldrich) was added at the protease to protein ratio, between 50 and 200 ng Pronase per μg of protein for 7.5–30 min at room temperature. The reaction was stopped by the addition of a 20x protease inhibitor cocktail and incubated on ice for 10 min. Protein samples were analyzed by immunoblotting.

mitochondrial ROS = assay: Mitochondrial ROS and integrity (MitoSOX/MitoTracker) in J774A.1 cells; type: cell-based, murine; details: LPS/nigericin, YQ128 10 μM
Protocol: J774A.1 cells (5 × 10^5 cells/mL) were plated in 12-well plates precoated with poly-L-lysine overnight. […] The supernatants were discarded, and the cells were washed with ice-cold PBS three times and fixed with 4% PFA in PBS for 15 min. DAPI (5 μg/mL) was used for nuclear staining. After that, the cells were washed with PBS three times, and fluorescence microscopy analyses were carried out using an Olympus IX73.
Figure S2. J774A.1 were primed with LPS (1 μg/mL) for 4.5 h and treated with or […]
h. Cells were stained with MitoSOX and MitoTracker red. Nuclei were stained with […]
Figure S3. YQ128 (A&B) and MCC950 (C&D) dose-dependently block the recognition of NLRP3 by D4D8T antibody. […]

[6] = target: T7, recombinant human NLRP3 protein (Homo sapiens, UniProt Q96P20); assay: Microscale thermophoresis (MST); type: binding; details: n = 3
T7 construct: The recombinant full-length NLRP3 protein was expressed and purified as previously described using Expi293F cells; 10His (N); 6His (C); made in house; host or cells: Expi293F
Protocol: The binding affinity was measured with a Monolith NT.Automated instrument as described previously. Recombinant human NLRP3 protein (500 nM) was labeled with 50 nM RED-tris-NTA dye (NanoTemper Technologies, MO-L018). […] The samples were loaded into NanoTemper glass capillaries, and thermophoresis curves were analyzed using the instrument.

T1 sequence (Q8R4B8 whole entry): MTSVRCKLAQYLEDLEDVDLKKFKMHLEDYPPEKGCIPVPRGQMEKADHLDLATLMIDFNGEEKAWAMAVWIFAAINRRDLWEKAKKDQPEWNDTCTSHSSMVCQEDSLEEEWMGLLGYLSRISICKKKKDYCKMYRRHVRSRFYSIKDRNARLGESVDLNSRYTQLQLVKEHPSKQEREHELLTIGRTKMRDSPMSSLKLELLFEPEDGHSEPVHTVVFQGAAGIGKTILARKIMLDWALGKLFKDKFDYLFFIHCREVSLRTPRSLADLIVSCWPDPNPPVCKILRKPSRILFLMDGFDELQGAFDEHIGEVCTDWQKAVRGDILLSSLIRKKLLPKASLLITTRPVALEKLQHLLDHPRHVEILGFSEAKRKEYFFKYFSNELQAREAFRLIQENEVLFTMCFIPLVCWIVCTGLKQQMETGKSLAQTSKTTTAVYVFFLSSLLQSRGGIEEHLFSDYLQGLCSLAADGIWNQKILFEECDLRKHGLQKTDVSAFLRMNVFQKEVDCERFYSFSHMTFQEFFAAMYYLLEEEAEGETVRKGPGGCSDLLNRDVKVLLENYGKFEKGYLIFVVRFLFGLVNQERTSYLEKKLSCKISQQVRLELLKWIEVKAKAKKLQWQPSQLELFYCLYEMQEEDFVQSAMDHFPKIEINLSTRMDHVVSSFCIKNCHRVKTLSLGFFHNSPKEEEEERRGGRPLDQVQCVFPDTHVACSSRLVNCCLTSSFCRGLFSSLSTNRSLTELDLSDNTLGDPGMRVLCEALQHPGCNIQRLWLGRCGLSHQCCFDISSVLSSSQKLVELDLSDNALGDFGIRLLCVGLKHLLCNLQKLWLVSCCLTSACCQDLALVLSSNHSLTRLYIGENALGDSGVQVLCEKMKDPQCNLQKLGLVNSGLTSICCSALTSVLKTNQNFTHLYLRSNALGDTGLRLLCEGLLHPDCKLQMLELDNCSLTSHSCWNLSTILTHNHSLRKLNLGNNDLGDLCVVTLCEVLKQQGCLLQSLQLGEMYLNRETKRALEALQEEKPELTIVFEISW
T6 sequence (Q96P20 131-679): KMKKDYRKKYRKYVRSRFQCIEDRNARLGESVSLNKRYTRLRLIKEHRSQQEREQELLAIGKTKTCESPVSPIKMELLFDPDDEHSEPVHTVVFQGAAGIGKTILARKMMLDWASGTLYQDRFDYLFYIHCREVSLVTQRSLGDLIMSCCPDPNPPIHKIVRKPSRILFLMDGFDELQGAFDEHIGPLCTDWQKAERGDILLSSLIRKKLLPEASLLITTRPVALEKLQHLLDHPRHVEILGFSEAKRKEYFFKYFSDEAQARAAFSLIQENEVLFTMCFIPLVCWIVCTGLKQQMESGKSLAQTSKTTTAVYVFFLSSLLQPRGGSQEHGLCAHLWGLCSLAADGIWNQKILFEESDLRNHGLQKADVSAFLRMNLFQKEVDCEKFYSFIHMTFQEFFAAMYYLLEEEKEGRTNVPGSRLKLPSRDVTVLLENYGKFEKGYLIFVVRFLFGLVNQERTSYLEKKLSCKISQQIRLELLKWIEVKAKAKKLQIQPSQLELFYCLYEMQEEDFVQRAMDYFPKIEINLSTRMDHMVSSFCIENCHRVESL
T7 sequence (Q96P20 whole entry): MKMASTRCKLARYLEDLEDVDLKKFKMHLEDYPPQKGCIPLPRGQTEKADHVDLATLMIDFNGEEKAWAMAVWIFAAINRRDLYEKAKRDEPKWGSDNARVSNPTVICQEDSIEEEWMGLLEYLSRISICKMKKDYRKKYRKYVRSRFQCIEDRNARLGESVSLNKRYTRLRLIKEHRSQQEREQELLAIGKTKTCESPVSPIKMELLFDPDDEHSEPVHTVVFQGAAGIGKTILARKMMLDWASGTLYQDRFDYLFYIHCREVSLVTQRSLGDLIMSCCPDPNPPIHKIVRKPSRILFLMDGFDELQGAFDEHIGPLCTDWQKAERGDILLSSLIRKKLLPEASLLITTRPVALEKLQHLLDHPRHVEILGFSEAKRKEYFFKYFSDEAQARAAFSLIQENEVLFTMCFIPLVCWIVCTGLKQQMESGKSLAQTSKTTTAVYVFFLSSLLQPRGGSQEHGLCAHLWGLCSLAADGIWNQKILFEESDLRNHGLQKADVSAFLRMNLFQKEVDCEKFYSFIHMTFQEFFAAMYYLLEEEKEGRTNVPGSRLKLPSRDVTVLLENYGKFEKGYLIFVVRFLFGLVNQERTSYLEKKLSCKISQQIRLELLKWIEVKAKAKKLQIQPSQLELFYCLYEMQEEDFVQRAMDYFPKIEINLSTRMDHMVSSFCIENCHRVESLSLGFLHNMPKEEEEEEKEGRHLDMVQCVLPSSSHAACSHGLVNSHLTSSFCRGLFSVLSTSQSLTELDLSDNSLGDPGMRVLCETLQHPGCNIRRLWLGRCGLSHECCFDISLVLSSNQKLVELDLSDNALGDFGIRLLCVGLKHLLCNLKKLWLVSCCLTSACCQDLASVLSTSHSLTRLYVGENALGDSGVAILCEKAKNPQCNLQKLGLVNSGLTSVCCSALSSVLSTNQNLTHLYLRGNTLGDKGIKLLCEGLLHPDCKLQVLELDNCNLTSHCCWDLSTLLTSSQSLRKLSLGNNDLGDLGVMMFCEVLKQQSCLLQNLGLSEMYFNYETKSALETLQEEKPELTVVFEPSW

## O=C(O)c1ccc(/C=C2/SC(=S)N(Cc3cccc(C(F)(F)F)c3)C2=O)cc1 [CY-09, reference compound]
NLRP3 [1]; recombinant NLRP3 preincubated with competitor
  competition of YM-I-27 labeling of NLRP3: completely blocked the interaction

## C#CCCC1(CCOc2ccc(Cl)cc2CN(CCc2ccc(S(=O)(=O)NCC#C)cc2)C(=O)Cc2ccsc2)N=N1 [YM-I-27]
Endogenous NLRP3
  decrease of emission lifetime of Alexa Fluor 488 (FRET donor): ~44 ps
NLRP3 [2]
  in situ proteome labeling: successfully and efficiently recognized NLRP3 along with four other proteins
NLRP3 [1]; UV cross-linking, NBD-N3 click, fluorescent visualization
  labeling of recombinant NLRP3 protein by probe: dose-dependently labeled the NLRP3 protein
NLRP3 inflammasome
  IC50: 500 nM

## C#CCNS(=O)(=O)c1ccc(CCN(Cc2cc(Cl)ccc2OCCC2(CCc3cn(CCOCCOCCNC(=O)CCCCC4SCC5NC(=O)NC54)nn3)N=N2)C(=O)Cc2ccsc2)cc1 (centres unmarked) [YM-I-85]
NLRP3 inflammasome
  IC50: 2400 nM
NLRP3 inflammasome; LPS/ATP, IL-1β
  potency relative to YQ128 (fold less): ~8 fold
NLRP3, NEK7, ASC
  photoaffinity labeling of proteins by probe (pull-down, Western blot): efficiently labeled NLRP3 and NEK7 in a dose-dependent manner but not ASC

## C#CCNS(=O)(=O)c1ccc(CCN(Cc2cc(Cl)ccc2OCCC)C(=O)Cc2ccsc2)cc1 [YQ128]
[3]
  levels of LPS-induced pro-IL-1β and NLRP3: neither YQ128 nor MCC950 changed the levels
ASC specks
  formation of ASC specks: significantly suppressed the formation of ASC specks
TNF-α
  production of TNF-α: No inhibition
[4]
  cleavage of caspase-1 and GSDMD: inhibitory effect
caspase-1
  catalytic activity of caspase-1: does not interfere with the catalytic activity of caspase-1
NLRP3 NACHT domain
  Kd: 165 nM
[5]
  Pronase digestion pattern (DARTS): the digestion pattern of the full-length NLRP3 and the PYD-NACHT fragment, but not the PYD fragment, by Pronase was altered
Mitochondrial ROS
  production of mitochondrial ROS and integrity: no significant effect
[6]
  Kd: 117 nM

— publication PMC12670425, “Mechanistic Characterization of a Small Molecule as a Direct NLRP3 Inhibitor via Binding to the NACHT Domain” (Journal of Medicinal Chemistry, 2025)
